The values below come from patent publication US12673944B2, “Compounds having inhibitory activity against glucosylceramide synthase or pharmaceutically acceptable salt thereof, processes for preparing the same, and pharmaceutical compositions comprising the same” (YUHAN CORPORATION, priority 2019, dated 2026).

For experiment [1], the target named is T1, glucosylceramide synthase (GCS) (Homo sapiens, UniProt Q16739).
T1 construct: The obtained supernatant was used; host or cells: A549 cells (lysate supernatant after sonication)
T1 sequence (Q16739 1-394): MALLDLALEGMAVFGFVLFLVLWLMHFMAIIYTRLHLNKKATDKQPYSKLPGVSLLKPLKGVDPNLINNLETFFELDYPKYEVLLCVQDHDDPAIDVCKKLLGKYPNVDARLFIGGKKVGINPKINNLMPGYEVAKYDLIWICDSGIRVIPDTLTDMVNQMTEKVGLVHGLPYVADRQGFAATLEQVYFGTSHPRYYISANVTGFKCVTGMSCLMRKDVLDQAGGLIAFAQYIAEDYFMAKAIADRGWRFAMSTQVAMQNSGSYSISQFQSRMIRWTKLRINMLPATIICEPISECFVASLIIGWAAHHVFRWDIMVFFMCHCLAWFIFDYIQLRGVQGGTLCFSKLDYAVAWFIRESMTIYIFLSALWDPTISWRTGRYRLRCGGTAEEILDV
Nature of the experiment: GCS enzyme inhibition assay (A549 cell lysate, NBD C6-ceramide, HPLC fluorescence). It is filed as biochemical. To be noted: inhibitory activity against GCS, 37° C., 90 minutes. Here is the method: Ibiglustat, known as a GCS inhibitor, was used as a control.
After the cells attached to the culture dish were washed with phosphate buffered saline (PBS), the cells were scraped off with a cell scraper and then centrifuged (4000 rpm, 3 min, 4° C.) to collect the cells in a 50 ml tube. The cell pellets were suspended in a lysis buffer (50 mM HEPES, pH 7.3, containing 1× the protease/phosphatase inhibitor cocktail), lysed by sonication, and then the lysate was centrifuged (13000 rpm, 10 min, 4° C.). The obtained supernatant was used for the quantitative analysis of proteins. The amount of proteins was measured using the BCA protein assay kit, using bovine serum albumin as a standard.
Enzymatic reactions were initiated by sequentially adding the following reaction materials to a 96 deep-well plate. Thereafter, the enzymatic reactions were performed at 37° C. for 90 minutes.
The enzymatic reactions were stopped by adding 100 μl of chloroform/methanol (2:1, v/v). After vortexing for 15 seconds, each mixture was centrifuged (4000 rpm, 10 min, 18° C.). The lower layer (50 μl) was transferred to a new 96 deep-well plate and dried with a reduced concentrator.
Data analysis was performed by the following equations. % Area(Sample)=Area(GlcCer)/[Area(Cer)+Area(GlcCer)]×100 % GCS activity=[Area(Sample)−Area(ibiglustat)]/[Area(DMSO)−Area(ibiglustat)]×100

The subject of experiment [2] is GM1 production in Jurkat cells. Nature of the experiment: cells. Format: cell-based.

Read-outs that look alike come from different tables or passages of the source.

On to `O=C(NC1CCOc2cc(-c3cccc(F)c3)ccc21)O[C@@H]1CN2CCC1CC2` (stereo partly drawn) [Example 1, (S)-quinuclidin-3-yl (7-(3-fluorophenyl)chroman-4-yl)carbamate], for which the IC50 – broadly, the concentration that inhibits the measured activity by half – in experiment [1] was 2.6 nM; in experiment [2] (Homo sapiens, Jurkat, 72 h), 1.69 nM.
In the same order, the values of `O=C(NC1CCOc2cc(-c3cccc(Cl)c3)ccc21)O[C@@H]1CN2CCC1CC2` (stereo partly drawn) [Example 2, (S)-quinuclidin-3-yl (7-(3-chlorophenyl)chroman-4-yl)carbamate] are 0.7 nM and 3.47 nM.
Regarding `O=C(NC1CCOc2cc(-c3cccc(C(F)(F)F)c3)ccc21)O[C@@H]1CN2CCC1CC2` (stereo partly drawn) [Example 3, (S)-quinuclidin-3-yl (7-(3-(trifluoromethyl)phenyl)chroman-4-yl)carbamate], the IC50 was 0.7 nM in experiment [1] and 2.13 nM in experiment [2] (Homo sapiens, Jurkat, 72 h).
The corresponding values for `O=C(NC1CCOc2cc(-c3cccc(OC(F)(F)F)c3)ccc21)O[C@@H]1CN2CCC1CC2` (stereo partly drawn) [Example 4, (S)-quinuclidin-3-yl (7-(3-(trifluoromethoxy)phenyl)chroman-4-yl)carbamate] are 0.7 nM and 1.08 nM.
Regarding `COCOc1ccccc1-c1ccc2c(c1)OCCC2NC(=O)O[C@@H]1CN2CCC1CC2` (stereo partly drawn) [Example 5, (S)-quinuclidin-3-yl (7-(2-(methoxymethoxy)phenyl)chroman-4-yl)carbamate], the concentration for half-maximal inhibition (IC50) was 3.71 nM in experiment [1] and 29.2 nM in experiment [2] (Homo sapiens, Jurkat, 72 h).
Regarding `COCOc1cccc(-c2ccc3c(c2)OCCC3NC(=O)O[C@@H]2CN3CCC2CC3)c1` (stereo partly drawn) [Example 6, (S)-quinuclidin-3-yl (7-(3-(methoxymethoxy)phenyl)chroman-4-yl)carbamate], the IC50 in experiment [1] is 0.67 nM; in experiment [2] (Homo sapiens, Jurkat, 72 h), 7.18 nM.
As for `COCCOc1ccccc1-c1ccc2c(c1)OCCC2NC(=O)O[C@@H]1CN2CCC1CC2` (stereo partly drawn) [Example 7, (S)-quinuclidin-3-yl (7-(2-(2-methoxyethoxy)phenyl)chroman-4-yl)carbamate], the half-maximal inhibitory concentration (IC50) in experiment [1] is 3.28 nM; in experiment [2] (Homo sapiens, Jurkat, 72 h), 34.1 nM.
`COCCOc1cccc(-c2ccc3c(c2)OCCC3NC(=O)O[C@@H]2CN3CCC2CC3)c1` (stereo partly drawn) [Example 8, (S)-quinuclidin-3-yl (7-(3-(2-methoxyethoxy)phenyl)chroman-4-yl)carbamate]: the half-maximal inhibitory concentration (IC50) was determined as 0.48 nM in experiment [1] and 3.59 nM in experiment [2] (Homo sapiens, Jurkat, 72 h).
Turning to `O=C(NC1CCOc2cc(-c3ccccc3F)ccc21)O[C@@H]1CN2CCC1CC2` (stereo partly drawn) [Example 9, (S)-quinuclidin-3-yl (7-(2-fluorophenyl)chroman-4-yl)carbamate], the half-inhibitory concentration (IC50) in experiment [1] turned out to be 1.81 nM; in experiment [2] (Homo sapiens, Jurkat, 72 h) it was 2.83 nM.
`O=C(NC1CCOc2cc(-c3ccccc3Cl)ccc21)O[C@@H]1CN2CCC1CC2` (stereo partly drawn) [Example 10, (S)-quinuclidin-3-yl (7-(2-chlorophenyl)chroman-4-yl)carbamate]: the IC50 came out at 2.02 nM in experiment [1] and 7.23 nM in experiment [2] (Homo sapiens, Jurkat, 72 h).
In the case of `O=C(NC1CCOc2cc(-c3ccccc3C(F)(F)F)ccc21)O[C@@H]1CN2CCC1CC2` (stereo partly drawn) [Example 11, (S)-quinuclidin-3-yl (7-(2-(trifluoromethyl)phenyl)chroman-4-yl)carbamate], the half-inhibitory concentration (IC50) in experiment [1] is 10.4 nM; in experiment [2] (Homo sapiens, Jurkat, 72 h), 18.2 nM.
Consider `O=C(NC1CCOc2cc(-c3ccccc3OC(F)(F)F)ccc21)O[C@@H]1CN2CCC1CC2` (stereo partly drawn) [Example 12, (S)-quinuclidin-3-yl (7-(2-(trifluoromethoxy)phenyl)chroman-4-yl)carbamate], for which the IC50 amounted to 4.28 nM in experiment [1] and 3.28 nM in experiment [2] (Homo sapiens, Jurkat, 72 h).
Consider `CC1(C)COc2cc(-c3ccc(N4CCOCC4)c(F)c3)ccc2C1NC(=O)O[C@@H]1CN2CCC1CC2` (stereo partly drawn) [Example 204, (S)-quinuclidin-3-yl (7-(3-fluoro-4-morpholinophenyl)-3,3-dimethylchroman-4-yl)carbamate], for which, in experiment [2] (read-out: IC50), the IC50 was 0.31 nM.
`CC1(C)CC(NC(=O)O[C@@H]2CN3CCC2CC3)c2cc(-c3cccc(F)c3)ccc2O1` (stereo partly drawn) [Example 294, (S)-quinuclidin-3-yl (6-(3-fluorophenyl)-2,2-dimethylchroman-4-yl)carbamate]: the half-maximal inhibitory concentration (IC50) in experiment [1] was 145 nM.
